From US20210332024A1, “MODULATORS OF PIN1 ACTIVITY AND USES THEREOF” (Yeda Research and Development Co. Ltd., priority 2019, published 2021)

Columns and labels:
Pin1 [1] = biological target: T1, Pin1 (Homo sapiens, UniProt Q13526); test: Pin1 levels in PDAC cells (Western blot); format: cell-based; conditions: treated for 3 days
T1 construct: endogenous in cells; host or cells: patient-derived PDAC cells
Procedure: Pancreatic ductal adenocarcinoma (PDAC) cells (derived from a human patient) were treated with Pin1-3 for 3 days. PDAC organoids were treated with Pin1-3 for 7 days (day 7 to day 14).

[2] = system: MDA-MB-468 breast adenocarcinoma cells; test: Prolonged-treatment cell growth, MDA-MB-468; format: cell-based; conditions: MDA-MB-468, 1 or 2.5 μM
Procedure: The ability of Pin1-3 treatment to induce more pronounced anti-proliferative effects after prolonged treatment (6-8 days) was then assessed. In order to ensure that target engagement was maintained for the duration of the experiment, Pin1-3 was replenished in fresh media every 48 hours.

Pin1 [3] = biological target: T2, Pin1 (Mus musculus, UniProt Q9QUR7); test: In vivo Pin1 engagement, spleen competition pull-down; design: species or system mice
T2 construct: from tissue; host or cells: mouse spleen
T2 sequence (Q9QUR7 whole entry): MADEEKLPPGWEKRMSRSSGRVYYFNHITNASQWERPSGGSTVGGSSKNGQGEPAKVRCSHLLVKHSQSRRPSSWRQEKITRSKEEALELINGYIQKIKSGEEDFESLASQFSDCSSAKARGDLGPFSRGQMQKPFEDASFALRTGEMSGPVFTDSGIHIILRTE
Procedure: The in vivo engagement of Pin1 by Pin1-3 was then assessed using Pin1-3-DTB. Mice were treated with either vehicle, 10 mg/kg or 20 mg/kg Pin1-3 by oral gavage (QD) for 3 days, followed by lysis of the spleens for a competition pull-down experiment.

Pin1 in PATU-8988T cells = biological target: T3, Pin1 in PATU-8988T cells (Homo sapiens, UniProt Q13526); test: Live cell competition assay with Pin1-3-DTB pull-down, PATU-8988T cells; format: cell-based
T3 construct: endogenous in cells; host or cells: PATU-8988T
T3 sequence (Q13526 whole entry): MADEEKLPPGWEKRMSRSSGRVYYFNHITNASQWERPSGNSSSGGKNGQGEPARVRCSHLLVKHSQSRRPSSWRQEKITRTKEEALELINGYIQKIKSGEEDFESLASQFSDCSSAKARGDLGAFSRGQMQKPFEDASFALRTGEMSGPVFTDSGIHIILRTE
Procedure: The indicated cells were treated with increasing concentrations of either DMSO, Pin1-3, or Pin1-3-AcA for 5 hours. Cells were harvested by scraping and washed twice with PBS before lysis with 50 mM HEPES (pH 7.4), 1 mM EDTA, 10% glycerol, 1 mM TCEP, 150 mM NaCl, 1 mM EDTA, 0.5% NP-40, and protease inhibitor tablet (Roche cat. #4693159001). After clarifying (14,000 rpm for 15 minutes), samples were treated with the indicated concentrations of Pin1-3-DTB at 4° C. for 1 hour. Lysates were then incubated with streptavidin agarose resin (Thermo Scientific, cat. #20349) for 1.5 hour at 4° C. Beads were washed four times with 500 μl of washing buffer (50 mM HEPES (pH 7.5), 10 mM NaCl, 1 mM EDTA, 10% glycerol), then pelleted by centrifugation and dried. The beads were boiled for 5 minutes at 95° C. in 2×LDS+10% β-mercaptoethanol. Proteins of interest were then assessed via Western blotting using the bolt system (Life Technologies).
The indicated cells were plated in 10 cm plates with 2.5 million cells per plate in 6 ml of medium. The day after plating, cells were treated with the indicated concentrations of candidate inhibitor for the indicated time points. The cells were then washed two times with cold phosphate buffer saline (1 ml per 10 cm plate) and collected by scraping with a cell scraper. Cells were lysed in 50 mM HEPES (pH 7.4), 1 mM EDTA, 10% glycerol, 1 mM TCEP, 150 mM NaCl, 1 mM EDTA, 0.5% NP-40, and protease inhibitor tablet (Roche)-using 210 μl of cell lysis buffer per 10 cm plate of cells. After clarifying (14,000 rpm for 15 minutes), 9 μl of each lysate sample was combined with […] of 4×LDS+10% β-mercaptoethanol (in a ratio of 3:1), boiled for 5 minutes, and set aside for the input loading control. Then, 200 μl of each lysate sample was incubated with 1 μM of Pin1-3-DTB for 1 hour at 4° C. and processed as described hereinabove for the lysate pull-down assays.
In order to assess cell permeability of Pin1-3 as well as its ability to engage cellular Pin1, PATU-8988T cells were treated with Pin1-3 (0.25 to 1 μM) for 5 hours. After cell lysis, the lysates were incubated with Pin1-3-DTB (1 μM, 1 hour at 4° C.) and probe-labeled targets were pulled down with streptavidin beads.

T1 sequence (Q13526 whole entry): as above

CC(C)(C)CN(C(=O)CCl)C1CCS(=O)(=O)C1 (centres unmarked) [Pin1-3, 2-chloro-N-(sulfolan-3-yl)-N-neopentylacetamide]
Pin1 levels in PDAC cells (Pin1 [1]): reduced Pin1 in PDAC cells in a dose-dependent manner
Cell growth [2]: long-term inhibition
Mice with effective Pin1 engagement (Pin1 [3]; 10 mg/kg oral gavage QD for 3 days): 1 of the 3 mice
Mice with effective Pin1 engagement (Pin1 [3]; 20 mg/kg oral gavage QD for 3 days): all 3 mice
Engagement of Pin1 after 2 hours (Pin1 in PATU-8988T cells; 1 μM): about 50%
Time to complete engagement of Pin1 (Pin1 in PATU-8988T cells; 1 μM): ≤ 4 h
Competition with Pin1-3-DTB for Pin1 binding (pull-down) (Pin1 in PATU-8988T cells; 0.25 to 1 μM for 5 hours (Pin1-3-AcA 1 μM)): dose-dependent inhibition of Pin1-3-DTB pull-down
Concentration of maximal competition (Pin1 in PATU-8988T cells; 5 hours): 1 µM
